Experimental data reported in US20110237594A1, “FUNGICIDE HERETOCYCLYL-TRIAZINYL-AMINO DERIVATIVES” (priority 2008, published 2011).

test system: Botrytis cinerea; test: In vivo test on Botrytis cinerea (grey mould); settings: gherkin plants, sprayed 24 hours before contamination, dose 500 ppm, grading 5/7 days after contamination
Method: Plants, used as controls, are treated with an aqueous solution not containing the active material. After 24 hours, the plants are contaminated by depositing drops of an aqueous suspension of Botrytis cinerea spores (150,000 spores per ml) on upper surface of the leaves. The spores are collected from a 15-day-old culture and are suspended in a nutrient solution composed of: • 20 g/L of gelatine; • 50 g/L of D-fructose; • 2 g/L of NH4NO3; • 1 g/L of KH2PO4. The contaminated cucumber plants are settled for 5/7 days in a climatic room at 15-11° C. […] Grading is carried out 5/7 days after the contamination, in comparison with the control plants. Under these conditions, good (at least 70%) or total protection is observed at a dose of 500 ppm with the following compound: A14

**Q.** Which “protection (good, at least 70%, or total)” value does the source give for CCC(C)Nc1cc(-c2ncnc(Nc3ccc(OC)nc3)n2)ccn1 (centres unmarked) [Compound A14] here?
**A.** at least 70%

test system: Pyrenophora teres; test: In vivo test on Pyrenophora teres (barley net blotch); settings: barley plants, sprayed 24 hours before contamination, dose 500 ppm, grading 12 days after contamination
Method: Barley plants (Express variety), sown on a 50/50 peat soil-pozzolana substrate in starter cups and grown at 12° C., are treated at the 1-leaf stage (10 cm tall) by spraying with the active ingredient prepared as described above. Plants, used as controls, are treated with an aqueous solution not containing the active material. After 24 hours, the plants are contaminated by spraying them with an aqueous suspension of Pyrenophora teres spores (12,000 spores per ml). The spores are collected from a 12-day-old culture. […] Grading is carried out 12 days after the contamination, in comparison with the control plants. Under these conditions, good (at least 70%) is observed at a dose of 500 ppm with the following compound: A14

**Q.** With CCC(C)Nc1cc(-c2ncnc(Nc3ccc(OC)nc3)n2)ccn1 (centres unmarked) [Compound A14] as the molecule, how does the “protection (good, at least 70%)” value read?
**A.** at least 70%

test system: Pyricularia oryzae; test: not given; assay type: in vivo; settings: rice, protective, 250 ppm of active ingredient, evaluated 5 days after inoculation

**Q.** Which efficacy does the source give for CCC(C)Nc1cc(-c2ncnc(Nc3ccc(OC)nc3)n2)ccn1 (centres unmarked) [Compound A14] here?
**A.** ≥ 80%

test system: Rhizoctonia solani; test: Rhizoctonia test (rice) / protective; assay type: in vivo; settings: 250 ppm of active ingredient, evaluated 4 days after inoculation
Method: To produce a suitable preparation of active compound, 1 part by weight of active compound is mixed with the stated amounts of solvent and emulsifier, and the concentrate is diluted with water to the desired concentration. To test for protective activity, young plants are sprayed with the preparation of active compound at the stated rate of application. One day after spraying, the plants are inoculated with a hypha of the causal agent of rice sheath blight (Rhizoctonia solani). The plants are then placed in an incubator at approximately 25° C. and a relative atmospheric humidity of approximately 100%.

**Q.** With CCC(C)Nc1cc(-c2ncnc(Nc3ccc(OC)nc3)n2)ccn1 (centres unmarked) [Compound A14] as the molecule, how does the efficacy read?
**A.** ≥ 80%

test system: Cochliobolus miyabeanus; test: Cochliobolus test (rice) / protective; assay type: in vivo; settings: 250 ppm of active ingredient, evaluated 4 days after inoculation

**Q.** For CCC(C)Nc1cc(-c2ncnc(Nc3ccc(OC)nc3)n2)ccn1 (centres unmarked) [Compound A14], which efficacy is on record?
**A.** ≥ 80%

test system: not listed separately; test: logP by HPLC on reversed phase columns (EEC directive 79/831 Annex V.A8); settings: [c] LC-MS at pH 7.8, 0.001 molar ammonium hydrogen carbonate in water, gradient 10% to 95% acetonitrile

**Q.** Which Lop p does the source give for CCC(C)Nc1cc(-c2ncnc(Nc3ccc(OC)nc3)n2)ccn1 (centres unmarked) [Compound A14] here?
**A.** 2.47[c]

**Q.** With COc1ccc(Nc2ncnc(-c3ccnc(NCCOC(C)C)c3)n2)cn1 [Compound A10] as the molecule, how does the Lop p read?
**A.** 2.53[c]

**Q.** With COCC(C)Nc1cc(-c2ncnc(Nc3ccc(OC)nc3)n2)ccn1 (centres unmarked) [Compound A1] as the molecule, how does the Lop p read?
**A.** 2.25[c];

**Q.** With COc1ccc(Nc2ncnc(-c3ccnc(NCCCSC)c3)n2)cn1 [Compound A7] as the molecule, how does the Lop p read?
**A.** 2.62[c]

**Q.** Which Lop p does the source give for CCSCCNc1cc(-c2ncnc(Nc3ccc(OC)nc3)n2)ccn1 [Compound A4] here?
**A.** 2.78[c]

**Q.** With COc1ccc(Nc2ncnc(-c3ccnc(NCC(C)O)c3)n2)cn1 (centres unmarked) [Compound A8] as the molecule, how does the Lop p read?
**A.** 1.7[c]

**Q.** With C=C(C)CNc1cc(-c2ncnc(Nc3ccc(OC)nc3)n2)ccn1 [Compound A6] as the molecule, how does the Lop p read?
**A.** 2.57[c]

**Q.** For COc1ccc(Nc2ncnc(-c3ccnc(NC(C)CN(C)C)c3)n2)cn1 (centres unmarked) [Compound A5], which Lop p is on record?
**A.** 1.45[c]

**Q.** For COc1ccc(Nc2ncnc(-c3ccnc(NCC4CCCO4)c3)n2)cn1 (centres unmarked) [Compound A13], which Lop p is on record?
**A.** 2.17[c]

**Q.** For COc1ccc(Nc2ncnc(-c3ccnc(NCC(C)C)c3)n2)cn1 [Compound A2, N-(6-methoxypyridin-3-yl)-4-{2-[(2-methylpropyl)amino]pyridin-4-yl}-1,3,5-triazin-2-amine], which Lop p is on record?
**A.** 2.52[c]

**Q.** With COc1ccc(Nc2ncnc(-c3ccnc(NCCSC)c3)n2)cn1 [Compound A12] as the molecule, how does the Lop p read?
**A.** 2.44[c]

**Q.** Which Lop p does the source give for COc1ccc(Nc2ncnc(-c3ccnc(NCCC(C)C)c3)n2)cn1 [Compound A11] here?
**A.** 3.27[c]

**Q.** With CCC(O)CNc1cc(-c2ncnc(Nc3ccc(OC)nc3)n2)ccn1 (centres unmarked) [Compound A9] as the molecule, how does the Lop p read?
**A.** 1.97[c]

same assay, conditions: unmarked values: LC-MS at pH 2.7, 0.1% formic acid in water / acetonitrile, gradient 10% to 95% acetonitrile

**Q.** For CN(CC1CCCO1)c1cc(-c2ncnc(Nc3ccsc3)n2)ccn1 (centres unmarked) [Compound A24], which Lop p is on record?
**A.** 1.59

**Q.** For CC(C)C(C)Nc1cc(-c2ncnc(Nc3ccsc3)n2)ccn1 (centres unmarked) [Compound A17], which Lop p is on record?
**A.** 1.79

**Q.** With CC(C)CN(C)c1cc(-c2ncnc(Nc3ccsc3)n2)ccn1 [Compound A16] as the molecule, how does the Lop p read?
**A.** 1.86

**Q.** Which Lop p does the source give for CC(C)(C)OC(=O)Nc1cc(-c2ncnc(Nc3ccsc3)n2)ccn1 [Compound A19] here?
**A.** 3.39

**Q.** For Nc1cc(-c2ncnc(Nc3ccsc3)n2)ccn1 [Compound A20], which Lop p is on record?
**A.** 0.98

**Q.** With CCC(COC)Nc1cc(-c2ncnc(Nc3ccsc3)n2)ccn1 (centres unmarked) [Compound A30] as the molecule, how does the Lop p read?
**A.** 1.6

**Q.** Which Lop p does the source give for COCC(C)Nc1cc(-c2ncnc(Nc3ccsc3)n2)ccn1 (centres unmarked) [Compound A15] here?
**A.** 1.4

**Q.** For COCC(C)Nc1cc(-c2ncnc(Nc3ccc(OC)nc3)n2)ccn1 (centres unmarked) [Compound A1], which Lop p is on record?
**A.** 1.3

**Q.** For CN(CC1CC1)c1cc(-c2ncnc(Nc3ccsc3)n2)ccn1 [Compound A21], which Lop p is on record?
**A.** 1.75

**Q.** With COCCN(C)c1cc(-c2ncnc(Nc3ccsc3)n2)ccn1 [Compound A26] as the molecule, how does the Lop p read?
**A.** 1.45

**Q.** Which Lop p does the source give for CC(C)=CCN(C)c1cc(-c2ncnc(Nc3ccsc3)n2)ccn1 [Compound A33] here?
**A.** 2.14

**Q.** For C=CCN(C)c1cc(-c2ncnc(Nc3ccsc3)n2)ccn1 [Compound A27], which Lop p is on record?
**A.** 1.48

**Q.** Which Lop p does the source give for CCC(C(C)OC)N(C)c1cc(-c2ncnc(Nc3ccsc3)n2)ccn1 (centres unmarked) [Compound A22] here?
**A.** 2.14

**Q.** For O=CNc1cc(-c2ncnc(Nc3ccsc3)n2)ccn1 [Compound A36], which Lop p is on record?
**A.** 1.9

**Q.** With CN(CC(F)(F)F)c1cc(-c2ncnc(Nc3ccsc3)n2)ccn1 [Compound A23] as the molecule, how does the Lop p read?
**A.** 3.42

**Q.** With CCCC(C)Nc1cc(-c2ncnc(Nc3ccsc3)n2)ccn1 (centres unmarked) [Compound A31] as the molecule, how does the Lop p read?
**A.** 1.84

**Q.** Which Lop p does the source give for COCCNc1cc(-c2ncnc(Nc3ccsc3)n2)ccn1 [Compound A18] here?
**A.** 1.28

**Q.** Which Lop p does the source give for CN(C)c1cc(-c2ncnc(Nc3ccsc3)n2)ccn1 [Compound A35] here?
**A.** 1.22

**Q.** Which Lop p does the source give for CC(C)CCN(C)c1cc(-c2ncnc(Nc3ccsc3)n2)ccn1 [Compound A32] here?
**A.** 2.18

**Q.** Which Lop p does the source give for COC1CCCN(c2cc(-c3ncnc(Nc4ccsc4)n3)ccn2)C1 (centres unmarked) [Compound A25] here?
**A.** 1.74

**Q.** Which Lop p does the source give for CCN(CC)c1cc(-c2ncnc(Nc3ccsc3)n2)ccn1 [Compound A29] here?
**A.** 1.57

**Q.** With CCCN(C)c1cc(-c2ncnc(Nc3ccsc3)n2)ccn1 [Compound A28] as the molecule, how does the Lop p read?
**A.** 1.63

**Q.** For CN(c1cc(-c2ncnc(Nc3ccsc3)n2)ccn1)C1CCCC1 [Compound A34], which Lop p is on record?
**A.** 1.93
